Results taken from US11464780B2, “Pyrazolopyrimidine derivative and use thereof” (Simcere Pharmaceutical Co. Ltd., priority 2018, dated 2022).
Counter-ions that a name gives are not always drawn.

Experiments:
TrkA = target: T1, TrkA (Homo sapiens, UniProt P04629); experiment: Kinase inhibitory activity (33P-ATP filter binding, Reaction Biology Corp.); assay type: biochemical; conditions: read-out: The half maximal inhibitory concentration IC50 on the kinases, TrkA
T1 construct: purchased Reaction Biology Corp. (contract assay)
Procedure: (§1) The mixture was incubated at room temperature for 20 minutes. To the reaction mixture was added a certain concentration of ^33P-ATP to initiate the reaction, and then the mixture was incubated at room temperature for 120 minutes. The radioactivities of the reactants were determined by the method of filter binding. The final kinase activity was expressed as the ratio of the remaining kinase activity in the test sample to the kinase activity in the DMSO control group. The dose-effect curve was fitted by GraphPad software and the IC50 was calculated.

TrkA-G595R = target: T2, TrkA-G595R (Homo sapiens, UniProt P04629, G595R); experiment: as above; assay type: biochemical; conditions: read-out: The half maximal inhibitory concentration IC50 on the kinases, TrkA-G595R
T2 construct: purchased Reaction Biology Corp. (contract assay)
Procedure: as §1

[1] = target: T3, Ba/F3 LMNA-NTRK1-WT stably transfected cell line (Homo sapiens, UniProt P04629); experiment: Cell proliferation inhibition (CellTiter-Glo); assay type: cell-based; conditions: 72 hours, read-out: The half maximal inhibitory concentration IC50 against cells, Ba/F3 LMNA-NTRK1-WT
T3 construct: fused on or other part: P02545 (Prelamin-A/C)
Procedure: Adenosine Tri-Phosphate (ATP) is an energy carrier shared by various life activities in nature, and is the smallest unit of energy storage and transfer. The CellTiter-Glo™ cell viability detection kit uses luciferase as the detection substance, and luciferase requires the participation of ATP during the process of luminescence. CellTiter-Glo™ reagent is added to cell culture medium, and the luminescent intensity is measured. The luminescent signal is directly proportional to the amount of ATP in the system, and ATP is positively related to the number of living cells. Therefore, by using the CellTiter-Glo kit to detect ATP content, cell proliferation can be detected. In this assay, the cell line is Ba/F3 LMNA-NTRK1-WT stably transfected cell line, with 5000 cells/well.
IC50 Determination Process:
1. Cell Culture and Inoculation
a) the cells in the logarithmic growth phase were harvested, and counted with a platelet counter. Trypan blue exclusion method was used to detect cell viability to ensure the cell viability was no less than 90%.
b) the cell concentration was adjusted; 90 μL of cell suspension was added respectively into a 96-well plate.
c) the cells in the 96-well plates was cultured under conditions of 37° C., 5% CO2 and 95% humidity overnight.
2. Drug Dilution and Administration
a) 10-fold drug solutions were prepared, the highest concentration was 10 μM, 9 concentrations, 3-fold diluted (refer to Appendix I). 10 μL of each drug solution was added to each well of the 96-well plate seeded with the cells in triplicate.
b) the cells in the 96-well plate added with the drug were cultured under conditions of 37° C., 5% CO2 and 95% humidity for 72 hours, and then CTG (cell proliferation) was performed.
a) CellTiter-Glo™ reagent was thawed, and the cell plate was equilibrated at room temperature for 30 minutes.
b) CellTiter-Glo™ reagent of a same volume was added to each well;
c) the cell plate was shaken on an orbital shaker for 5 minutes to lyse the cells.
d) the cell plate was placed at room temperature for 20 minutes to stabilize the luminescent signal.
e) the luminescent intensity was read.
GraphPad Prism 5.0 software was used to analyze the data, nonlinear S-curve regression was used to fit the data to obtain dose-effect curve, and IC50 value was calculated therefrom.

TrkC = target: T4, TrkC (Homo sapiens, UniProt Q16288); experiment: Kinase inhibitory activity (33P-ATP filter binding, Reaction Biology Corp.); assay type: biochemical; conditions: read-out: The half maximal inhibitory concentration IC50 on the kinases, TrkC
T4 construct: purchased Reaction Biology Corp. (contract assay)
Procedure: as §1

ALK = target: T5, ALK (Homo sapiens, UniProt Q9UM73); experiment: as above; assay type: biochemical; conditions: read-out: The half maximal inhibitory concentration IC50 on the kinases, ALK
T5 construct: purchased Reaction Biology Corp. (contract assay)
Procedure: The inhibitory activities of the compounds on TrkA, TrkC, ALK, Ros1 and other kinases were determined by Reaction Biology Corp. To reaction buffer (20 mM Hepes (pH 7.5), 10 mM MgCl2, 1 mM EGTA, 0.02% Brij35, 0.02 mg/mL BSA, 0.1 mM Na3VO4, 2 mM DTT, 1% DMSO) were sequentially added a certain concentration of substrate, coenzyme factor, kinase and test compound (10 concentrations, 3-fold serial dilutions, DMSO at a final concentration of […]), and the mixture was mixed evenly. The mixture was incubated at room temperature for 20 minutes. To the reaction mixture was added a certain concentration of ^33P-ATP to initiate the reaction, and then the mixture was incubated at room temperature for 120 minutes. The radioactivities of the reactants were determined by the method of filter binding. The final kinase activity was expressed as the ratio of the remaining kinase activity in the test sample to the kinase activity in the DMSO control group. The dose-effect curve was fitted by GraphPad software and the IC50 was calculated.

Ros1 = target: T6, Ros1 (Homo sapiens, UniProt P08922); experiment: as above; assay type: biochemical; conditions: read-out: The half maximal inhibitory concentration IC50 on the kinases, Ros1
T6 construct: purchased Reaction Biology Corp. (contract assay)
Procedure: as §1

T2 sequence (P04629 33-796 G595R): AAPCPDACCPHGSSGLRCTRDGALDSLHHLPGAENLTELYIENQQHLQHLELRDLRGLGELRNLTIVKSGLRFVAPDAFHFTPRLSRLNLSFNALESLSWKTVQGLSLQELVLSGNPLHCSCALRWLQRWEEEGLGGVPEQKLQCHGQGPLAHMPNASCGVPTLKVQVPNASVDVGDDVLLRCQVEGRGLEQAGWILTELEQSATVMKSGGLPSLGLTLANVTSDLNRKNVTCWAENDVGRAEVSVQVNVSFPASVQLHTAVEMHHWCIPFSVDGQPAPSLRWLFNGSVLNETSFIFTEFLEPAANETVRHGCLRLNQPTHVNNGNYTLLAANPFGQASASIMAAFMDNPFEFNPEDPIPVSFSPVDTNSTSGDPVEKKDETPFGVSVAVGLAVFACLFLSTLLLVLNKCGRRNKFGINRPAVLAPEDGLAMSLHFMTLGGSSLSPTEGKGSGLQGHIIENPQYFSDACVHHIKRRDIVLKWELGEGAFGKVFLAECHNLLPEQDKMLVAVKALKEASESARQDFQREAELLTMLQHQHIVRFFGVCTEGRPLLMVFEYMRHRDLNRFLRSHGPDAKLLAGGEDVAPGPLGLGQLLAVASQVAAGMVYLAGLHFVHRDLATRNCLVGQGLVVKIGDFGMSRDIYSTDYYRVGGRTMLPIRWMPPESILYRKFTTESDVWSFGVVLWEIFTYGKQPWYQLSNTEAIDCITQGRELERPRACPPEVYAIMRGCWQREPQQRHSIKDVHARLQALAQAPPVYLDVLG
T1 sequence (P04629 33-796): as the sequence (P04629 33-796 G595R) above, with R563G counted along it
T3 sequence (P04629 whole entry, stated change not applied, the tested form may be a part): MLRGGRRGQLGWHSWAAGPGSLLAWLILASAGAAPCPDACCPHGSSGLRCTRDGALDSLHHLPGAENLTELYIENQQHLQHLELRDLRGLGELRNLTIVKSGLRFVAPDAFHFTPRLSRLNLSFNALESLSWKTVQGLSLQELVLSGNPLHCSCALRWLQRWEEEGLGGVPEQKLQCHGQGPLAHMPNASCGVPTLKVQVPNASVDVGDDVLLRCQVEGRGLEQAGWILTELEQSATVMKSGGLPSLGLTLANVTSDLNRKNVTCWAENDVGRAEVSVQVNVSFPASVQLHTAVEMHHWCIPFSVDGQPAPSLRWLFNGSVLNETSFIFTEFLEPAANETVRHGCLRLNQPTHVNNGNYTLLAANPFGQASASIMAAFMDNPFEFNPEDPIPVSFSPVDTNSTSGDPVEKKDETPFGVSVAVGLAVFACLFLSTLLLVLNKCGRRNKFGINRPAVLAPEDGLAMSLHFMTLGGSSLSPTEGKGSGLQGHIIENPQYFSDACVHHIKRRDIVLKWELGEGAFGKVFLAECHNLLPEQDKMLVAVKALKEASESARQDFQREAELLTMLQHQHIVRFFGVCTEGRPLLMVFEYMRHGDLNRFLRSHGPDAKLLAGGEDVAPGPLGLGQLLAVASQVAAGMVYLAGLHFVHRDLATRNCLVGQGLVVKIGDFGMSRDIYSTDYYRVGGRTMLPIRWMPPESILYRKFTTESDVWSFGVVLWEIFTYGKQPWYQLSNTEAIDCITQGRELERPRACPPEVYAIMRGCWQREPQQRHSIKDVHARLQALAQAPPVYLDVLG
T4 sequence (Q16288 32-839): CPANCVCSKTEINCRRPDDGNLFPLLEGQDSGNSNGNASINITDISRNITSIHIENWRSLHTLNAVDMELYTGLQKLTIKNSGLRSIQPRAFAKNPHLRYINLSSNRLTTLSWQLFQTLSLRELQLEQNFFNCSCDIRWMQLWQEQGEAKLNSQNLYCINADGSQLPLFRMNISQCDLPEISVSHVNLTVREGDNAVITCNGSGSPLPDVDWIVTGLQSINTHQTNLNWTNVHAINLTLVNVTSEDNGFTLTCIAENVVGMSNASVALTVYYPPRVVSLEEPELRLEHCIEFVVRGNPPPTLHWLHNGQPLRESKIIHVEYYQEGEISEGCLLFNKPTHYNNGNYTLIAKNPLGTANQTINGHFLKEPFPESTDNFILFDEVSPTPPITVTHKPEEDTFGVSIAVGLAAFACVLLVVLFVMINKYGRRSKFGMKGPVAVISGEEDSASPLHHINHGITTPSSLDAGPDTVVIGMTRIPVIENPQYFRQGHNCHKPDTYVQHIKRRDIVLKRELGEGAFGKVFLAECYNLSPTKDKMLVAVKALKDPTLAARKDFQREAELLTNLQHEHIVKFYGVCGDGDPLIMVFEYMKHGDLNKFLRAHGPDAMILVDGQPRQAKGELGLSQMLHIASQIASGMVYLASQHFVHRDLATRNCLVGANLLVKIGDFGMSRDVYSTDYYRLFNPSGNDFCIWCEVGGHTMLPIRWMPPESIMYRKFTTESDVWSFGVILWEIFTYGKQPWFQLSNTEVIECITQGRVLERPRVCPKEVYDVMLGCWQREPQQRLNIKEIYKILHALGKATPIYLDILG
T6 sequence (P08922 28-2347): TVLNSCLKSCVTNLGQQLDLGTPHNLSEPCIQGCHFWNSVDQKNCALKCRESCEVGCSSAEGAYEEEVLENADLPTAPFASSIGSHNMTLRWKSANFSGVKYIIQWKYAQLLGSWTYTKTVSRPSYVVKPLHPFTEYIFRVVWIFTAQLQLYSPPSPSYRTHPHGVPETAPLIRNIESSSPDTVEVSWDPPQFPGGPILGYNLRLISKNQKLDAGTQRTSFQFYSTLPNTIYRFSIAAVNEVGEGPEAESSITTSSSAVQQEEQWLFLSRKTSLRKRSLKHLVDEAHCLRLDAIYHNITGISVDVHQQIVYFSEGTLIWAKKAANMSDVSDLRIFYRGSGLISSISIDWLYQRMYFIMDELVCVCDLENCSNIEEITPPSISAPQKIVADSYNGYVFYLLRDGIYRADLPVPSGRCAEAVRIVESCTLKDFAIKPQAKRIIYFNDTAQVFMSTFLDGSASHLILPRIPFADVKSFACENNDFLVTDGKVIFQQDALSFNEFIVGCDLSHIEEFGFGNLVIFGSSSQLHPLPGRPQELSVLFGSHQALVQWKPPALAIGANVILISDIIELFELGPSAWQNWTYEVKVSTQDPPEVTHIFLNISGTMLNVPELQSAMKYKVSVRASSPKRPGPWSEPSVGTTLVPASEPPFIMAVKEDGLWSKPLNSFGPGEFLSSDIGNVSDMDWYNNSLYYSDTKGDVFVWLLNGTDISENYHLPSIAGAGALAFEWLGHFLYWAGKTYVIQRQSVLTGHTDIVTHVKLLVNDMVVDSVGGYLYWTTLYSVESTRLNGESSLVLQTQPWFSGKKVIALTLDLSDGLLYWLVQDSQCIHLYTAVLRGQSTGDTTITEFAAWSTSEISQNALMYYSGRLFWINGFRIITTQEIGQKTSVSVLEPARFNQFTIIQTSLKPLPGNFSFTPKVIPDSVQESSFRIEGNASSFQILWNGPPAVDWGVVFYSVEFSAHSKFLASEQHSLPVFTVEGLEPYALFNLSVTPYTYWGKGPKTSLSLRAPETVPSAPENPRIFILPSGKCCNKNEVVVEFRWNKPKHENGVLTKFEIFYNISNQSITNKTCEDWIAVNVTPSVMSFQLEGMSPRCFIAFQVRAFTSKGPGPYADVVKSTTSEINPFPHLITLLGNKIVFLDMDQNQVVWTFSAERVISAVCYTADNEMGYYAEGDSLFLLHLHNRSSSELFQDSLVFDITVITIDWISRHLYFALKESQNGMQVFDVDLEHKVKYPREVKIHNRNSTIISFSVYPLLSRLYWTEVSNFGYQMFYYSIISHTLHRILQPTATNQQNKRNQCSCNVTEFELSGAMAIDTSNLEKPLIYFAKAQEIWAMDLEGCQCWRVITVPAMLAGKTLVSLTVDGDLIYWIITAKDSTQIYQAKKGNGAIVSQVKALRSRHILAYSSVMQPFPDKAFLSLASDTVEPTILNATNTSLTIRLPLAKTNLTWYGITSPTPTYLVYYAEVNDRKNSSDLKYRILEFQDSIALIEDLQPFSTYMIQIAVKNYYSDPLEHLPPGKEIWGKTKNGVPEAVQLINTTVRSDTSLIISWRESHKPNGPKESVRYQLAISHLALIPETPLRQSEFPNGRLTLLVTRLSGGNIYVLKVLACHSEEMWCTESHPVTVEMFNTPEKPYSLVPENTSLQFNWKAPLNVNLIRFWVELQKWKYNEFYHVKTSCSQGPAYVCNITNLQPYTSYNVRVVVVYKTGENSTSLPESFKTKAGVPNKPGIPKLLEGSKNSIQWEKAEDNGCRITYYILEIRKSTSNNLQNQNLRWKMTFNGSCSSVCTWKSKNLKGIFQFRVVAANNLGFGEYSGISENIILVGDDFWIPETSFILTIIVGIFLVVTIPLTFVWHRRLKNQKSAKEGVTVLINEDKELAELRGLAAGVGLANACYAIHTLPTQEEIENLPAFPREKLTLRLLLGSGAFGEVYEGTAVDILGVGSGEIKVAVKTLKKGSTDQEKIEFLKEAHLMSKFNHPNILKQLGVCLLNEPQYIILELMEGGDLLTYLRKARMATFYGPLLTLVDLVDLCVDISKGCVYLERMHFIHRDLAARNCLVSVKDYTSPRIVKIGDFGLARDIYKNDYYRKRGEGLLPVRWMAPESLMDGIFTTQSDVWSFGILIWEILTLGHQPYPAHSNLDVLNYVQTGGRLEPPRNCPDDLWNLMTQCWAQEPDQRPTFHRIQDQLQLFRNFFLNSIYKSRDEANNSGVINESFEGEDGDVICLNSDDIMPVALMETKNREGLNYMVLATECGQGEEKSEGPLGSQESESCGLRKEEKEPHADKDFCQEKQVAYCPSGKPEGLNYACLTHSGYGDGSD

Structure (SMILES) | IC50 (TrkA) | also measured
CC(=O)N1CC[C@H]2NC(=O)c3cnn4ccc(nc34)N3OCC[C@H]3c3cc(F)cnc3O[C@H]2C1 [WX014A] | 1230 nM | 
CN1C[C@@H]2Oc3ncc(F)cc3[C@@H]3CCON3c3ccn4ncc(c4n3)C(=O)N[C@@H]2C1 [WX009B] | > 1000 nM | 
O=C1N[C@@H]2COCC[C@@H]2Oc2ncc(F)cc2[C@@H]2CCON2c2ccn3ncc1c3n2 [WX010A] | > 1000 nM | 
CC1CCc2ncc(F)cc2C2CCON2c2ccn3ncc(c3n2)C(=O)N1 (stereo not drawn) [WX001 hydrochloride] | 177 nM | 
C[C@@H]1COc2ccc(F)cc2[C@@H]2CCON2c2ccn3ncc(c3n2)C(=O)N1 [WX017B] | > 1000 nM | 
O=C1NC2(CC2)COc2ncc(F)cc2C2CCON2c2ccn3ncc1c3n2 (stereo not drawn) [WX002] | 4.37 nM | 
O=C1N[C@@H]2CCC[C@@H]2Oc2ncc(F)cc2[C@@H]2CCON2c2ccn3ncc1c3n2 [WX007B] | 585 nM | IC50 (TrkA-G595R): > 1000 nM
O=C1N[C@@H]2CCNC[C@@H]2Oc2ncc(F)cc2[C@@H]2CCON2c2ccn3ncc1c3n2 [WX013A] | > 1000 nM | 
CCN1CC[C@H]2NC(=O)c3cnn4ccc(nc34)N3OCC[C@@H]3c3cc(F)cnc3O[C@H]2C1 [WX016A] | 33 nM | GI50 [1]: 65.8 nM
C[C@@H]1COc2ncc(F)cc2[C@@H]2CCON2c2ccn3ncc(c3n2)C(=O)N1 [WX004B] | > 1000 nM | IC50 (TrkC): 105 nM
CN1C[C@@H]2Oc3ncc(F)cc3[C@H]3CCON3c3ccn4ncc(c4n3)C(=O)N[C@@H]2C1 [WX009A] | 85.1 nM | GI50 [1]: 76.8 nM
C[C@H]1CNC(=O)c2cnn3ccc(nc23)N2OCC[C@H]2c2cc(F)cnc2O1 [WX005A] | > 1000 nM | IC50 (ALK): > 1000 nM; IC50 (TrkC): 189 nM; IC50 (Ros1): 531 nM
O=C1NC2(COC2)COc2ncc(F)cc2[C@@H]2CCON2c2ccn3ncc1c3n2 [WX006B] | > 1000 nM | IC50 (TrkA-G595R): > 1000 nM
O=C1N[C@@H]2COC[C@@H]2Oc2ncc(F)cc2[C@@H]2CCON2c2ccn3ncc1c3n2 [WX008B] | > 1000 nM | IC50 (TrkA-G595R): > 1000 nM
CC1(C)COc2ncc(F)cc2[C@H]2CCON2c2ccn3ncc(c3n2)C(=O)N1 [WX018] | > 1000 nM | 
